Consider seven compounds from US20250059131A1, “FLUORINATED CATIONIC LIPIDS FOR USE IN LIPID NANOPARTICLES” (Acuitas Therapeutics, Inc., priority 2021, published 2025).

Marks after values point to notes of the source that are not given here.

The nature of data set [1]: Determination of pKa of formulated lipids (TNS fluorescence assay in lipid nanoparticles). To be noted: cationic lipid formulated in LNP (cationic lipid/DSPC/cholesterol/PEG-lipid 47.5/10/40.7/1.8 mol %), pH of half-maximal fluorescence. In kind it is physicochemical. How it is done:
As described elsewhere, the pKa of formulated cationic lipids is correlated with the effectiveness of LNPs for delivery of nucleic acids (see Jayaraman et al, Angewandte Chemie, International Edition (2012), 51(34), 8529-8533; Semple et al, Nature Biotechnology 28, 172-176 (2010)). The preferred range of pKa is ˜5 to ˜7. The pKa of each cationic lipid was determined in lipid nanoparticles using an assay based on fluorescence of 2-(p-toluidino)-6-napthalene sulfonic acid (TNS). Lipid nanoparticles comprising cationic lipid/DSPC/cholesterol/PEG-lipid (47.5/10/40.7/1.8 mol %) in PBS at a concentration of 0.4 mM total lipid were prepared using the in-line process as described in Example 1. TNS was prepared as a […] stock solution in distilled water. Vesicles were diluted to 24 μM lipid in 2 mL of buffered solutions containing, 10 mM HEPES, 10 mM MES, 10 mM ammonium acetate, 130 mM NaCl, where the pH ranged from 2.5 to 11. An aliquot of the TNS solution was added to give a final concentration of 1 μM and following vortex mixing fluorescence intensity was measured at room temperature in a SLM Aminco Series 2 Luminescence Spectrophotometer using excitation and emission wavelengths of 321 nm and 445 nm. A sigmoidal best fit analysis was applied to the fluorescence data and the pKa was measured as the pH giving rise to half-maximal fluorescence intensity.

The subject of data set [2] is luciferase expression in the liver. Briefly: Luciferase mRNA in vivo evaluation using lipid nanoparticle compositions. The arrangement: species or system mice. To be noted: tail vein injection, 4 hours after administration, LNP formulation; for Liver Luc @ 0.5 mg/kg (ng luc/g): 0.5 mg mRNA/kg. How it is done:
Lipid nanoparticles were prepared and tested according to the general procedures described in PCT Pub. Nos. WO 2015/199952 and WO 2017/004143, the full disclosures of which are incorporated herein by reference. Briefly, cationic lipid, DSPC, cholesterol and PEG-lipid were solubilized in ethanol at a molar ratio of about 50:10:38.5:1.5 or about 47.5:10:40.7:1.8. Lipid nanoparticles (LNP) were prepared at a total lipid to mRNA weight ratio of approximately 10:1 to 40:1. The mRNA is diluted to 0.2 mg/mL in 10 to 50 mM citrate or acetate buffer, pH 4. Syringe pumps were used to mix the ethanolic lipid solution with the mRNA aqueous solution at a ratio of about 1:5 to 1:3 (vol/vol) with total flow rates above 15 mL/min. The ethanol was then removed and the external buffer replaced with PBS by dialysis. Finally, the lipid nanoparticles were filtered through a 0.2 µm pore sterile filter. Lipid nanoparticle particle size was approximately 55-95 nm diameter, and in some instances approximately 70-90 nm diameter as determined by quasi-elastic light scattering using a Malvern Zetasizer Nano ZS (Malvern, UK).
Studies were performed in 6-8 week old female C57BL/6 mice (Charles River) or 8-10 week old CD-1 (Harlan) mice (Charles River) according to guidelines established by an institutional animal care committee (ACC) and the Canadian Council on Animal Care (CCAC). Varying doses of mRNA-lipid nanoparticle were systemically administered by tail vein injection and animals euthanized at a specific time point (e.g., 4 hours) post-administration. Liver and spleen were collected in pre-weighed tubes, weights determined, immediately snap frozen in liquid nitrogen and stored at −80° C. until processing for analysis.
For liver, approximately 50 mg was dissected for analyses in a 2 mL FastPrep tubes (MP Biomedicals, Solon OH). […] ceramic sphere (MP Biomedicals) is added to each tube and 500 μL of Glo Lysis Buffer—GLB (Promega, Madison WI) equilibrated to room temperature is added to liver tissue. Liver tissues were homogenized with the FastPrep24 instrument (MP Biomedicals) at 2×6.0 m/s for 15 seconds. Homogenate was incubated at room temperature for 5 minutes prior to a 1:4 dilution in GLB and assessed using SteadyGlo Luciferase assay system (Promega). Specifically, 50 μL of diluted tissue homogenate was reacted with 50 μL of SteadyGlo substrate, shaken for 10 seconds followed by 5 minute incubation and then quantitated using a CentroXS^3 LB 960 luminometer (Berthold Technologies, Germany). The amount of protein assayed was determined by using the BCA protein assay kit (Pierce, Rockford IL). Relative luminescence units (RLU) were then normalized to total μg protein assayed. To convert RLU to ng luciferase a standard curve was generated with QuantiLum Recombinant Luciferase (Promega).
The FLuc mRNA (L-6107 or L-7202) from Trilink Biotechnologies will express a luciferase protein, originally isolated from the firefly, photinus pyralis. FLuc is commonly used in mammalian cell culture to measure both gene expression and cell viability. It emits bioluminescence in the presence of the substrate, luciferin. This capped and poly-adenylated mRNA was fully substituted with respect to uridine and/or cytidine nucleosides.
(§1) Representative compounds of the disclosure shown in Table 2 were formulated using the following molar ratio: 50% cationic lipid/10% distearoylphosphatidylcholine (DSPC)/38.5% Cholesterol/1.5% PEG lipid 2-[2-(ω-methoxy(polyethyleneglycol2000)ethoxy]-N,N-ditetradecylacetamide) or 47.5% cationic lipid/10% DSPC/40.7% Cholesterol/1.8% PEG lipid. Relative activity was determined by measuring luciferase expression in the liver 4 hours following administration via tail vein injection as described in Example 1 or by measuring the amount of human IgG in mouse serum as described in example 2. […]

Data set [3] deals with human IgG in mouse serum. In words: Immunoglobulin G (IgG) mRNA in vivo evaluation using lipid nanoparticle compositions. Also noted: species or system mice. To be noted: tail vein injection, 24 hours after administration, LNP formulation; for Serum IgG @ 0.3 mg/kg: 0.3 mg mRNA/kg; for Serum IgG @ 1.0 mg/kg: 1.0 mg mRNA/kg. How it is done:
A lipid of structure (I), DSPC, cholesterol and PEG-lipid are solubilized in ethanol at a molar ratio of 50:10:38.5:1.5 or 47.5:10:40.7:1.8. Lipid nanoparticles (LNP) are prepared at a total lipid to mRNA weight ratio of approximately 10:1 to 40:1. Briefly, the mRNA is diluted to 0.2 mg/mL in 10 to 50 mM citrate buffer, pH 4 or 10 to 25 mM acetate buffer, pH 4. Syringe pumps are used to mix the ethanolic lipid solution with the mRNA aqueous solution at a ratio of about 1:5 to 1:3 (vol/vol) with total flow rates above 15 mL/min. The ethanol is then removed and the external buffer replaced with PBS by dialysis. Finally, the lipid nanoparticles are filtered through a 0.2 µm pore sterile filter.
Studies are performed in 6-8 week old CD-1/ICR mice (Envigo) according to guidelines established by an institutional animal care committee (ACC) and the Canadian Council on Animal Care (CCAC). Varying doses of mRNA-lipid nanoparticle are systemically administered by tail vein injection and animals euthanized at a specific time point (e.g., 24 hours) post-administration. The whole blood is collected, and the serum subsequentially separated by centrifuging the tubes of the whole blood at 2000× g for 10 minutes at 4° C. and stored at −80° C. until use for analysis.
For immunoglobulin G (IgG) ELISA (Life Diagnostics Human IgG ELISA kit), the serum samples are diluted at 100 to 15000 folds with 1× diluent solution. 100 μL of diluted serum is dispensed into anti-human IgG coated 96-well plate in duplicate alongside human IgG standards and incubated in a plate shaker at 150 rpm at 25° C. for 45 minutes. The wells are washed 5 times with 1× wash solution using a plate washer (400 μL/well). […] The absorbance is read at 450 nm (A450) with a microplate reader. The amount of human IgG in mouse serum is determined by plotting A450 values for the assay standard against human IgG concentration.
as §1, with “2. The activity was compared at a dose of 1.0 or 0.5 or 0.3 mg mRNA/kg and expressed as ng luciferase/g liver measured 4 hours after administration, as described in Example 1 or as μg IgG/mL serum measured 24 hours after administration, as described in Example 2.” for “2.”

For `CCCCCCCCCC(CC)OC(=O)CCCCCN(CCCCO)CCCCCC(=O)OC(CC)CCCCCCCCC` (stereo not drawn) [I-3 analogue, reference compound], the pKa in data set [1] worked out at 6.62. Further, the “Liver Luc @ 0.5 mg/kg (ng luc/g)” value in data set [2] is on record as 462 ± 425 ng luc/g.
Regarding `CCCCCCCCCCN(CCCCCCCCCC)C(=O)C(F)CCCCCCN(C)CCCCCCC(F)C(=O)N(CCCCCCCCCC)CCCCCCCCCC` (stereo not drawn) [Compound I-10, 8,8′-(METHYLAZANEDIYL)BIS(N,N-DIDECYL-2-FLUOROOCTANAMIDE)], in data set [3], the “Serum IgG @ 0.3 mg/kg” value worked out at 12.94 ± 2.03 µg/mL and the “Serum IgG @ 1.0 mg/kg” value is 142.26 ± 26.31 µg/mL.
As to `CCCCCCCCCC(OC(=O)CCCCCN(CCCCCO)CCCCCC(=O)OC(CCCCCCCCC)C(F)(F)C(F)(F)F)C(F)(F)C(F)(F)F` (stereo not drawn) [Compound I-4, BIS(1,1,1,2,2-PENTAFLUORODODECAN-3-YL) 6,6′-((5-HYDROXYPENTYL)AZANEDIYL)DIHEXANOATE], in data set [1], the pKa worked out at 5.88. In addition, the “Liver Luc, determined at 0.3 mg/kg (ng luc/g)” value in data set [2] (0.3 mg mRNA/kg) came to 1336 ± 329 ng luc/g. In addition, the “Liver Luc, determined at 1.0 mg/kg (ng luc/g)” value in data set [2] (1.0 mg mRNA/kg) was 14888 + 2009** ng luc/g.
Consider `CCCCCCCCCCN(CCCCCCCCCC)C(=O)C(F)CCCCCCN(CCCCCO)CCCCCCC(F)C(=O)N(CCCCCCCCCC)CCCCCCCCCC` (stereo not drawn) [Compound I-9, 8,8′-((5-HYDROXYPENTYL)AZANEDIYL)BIS(N,N-DIDECYL-2-FLUOROOCTANAMIDE)], for which, in data set [3], the “Serum IgG @ 0.3 mg/kg” value worked out at 24.36 ± 4.39 µg/mL and the “Serum IgG @ 1.0 mg/kg” value came out at 239.26 ± 39.80 µg/mL.
As for `CCCCCCCCCC(OC(=O)CCCCCN(CCCO)CCCCCC(=O)OC(CCCCCCCCC)C(F)(F)C(F)(F)F)C(F)(F)C(F)(F)F` (stereo not drawn) [Compound I-2, BIS(1,1,1,2,2-PENTAFLUORODODECAN-3-YL) 6,6′-((3-HYDROXYPROPYL)AZANEDIYL)DIHEXANOATE], the pKa in data set [1] turned out to be 5.92. Moreover, in data set [2], the “Liver Luc @ 0.5 mg/kg (ng luc/g)” value came to 511 ± 79 ng luc/g.
The corresponding values for `CCCCCCCCCC(OC(=O)CCCCCCCN(CCO)CCCCCCCC(=O)OC(CCCCCCCCC)C(F)(F)C(F)(F)F)C(F)(F)C(F)(F)F` (stereo not drawn) [Compound I-1, BIS(1,1,1,2,2-PENTAFLUORODODECAN-3-YL) 8,8′-((2-HYDROXYETHYL)AZANEDIYL)DIOCTANOATE] are 5.88 and 1233 ± 305 ng luc/g.
For `CCCCCCCCCC(OC(=O)CCCCCN(CCCCO)CCCCCC(=O)OC(CCCCCCCCC)C(F)(F)C(F)(F)F)C(F)(F)C(F)(F)F` (stereo not drawn) [Compound I-3, BIS(1,1,1,2,2-PENTAFLUORODODECAN-3-YL) 6,6′-((4-HYDROXYBUTYL)AZANEDIYL)DIHEXANOATE], the pKa in data set [1] is 6.03. In data set [2], the “Liver Luc @ 0.5 mg/kg (ng luc/g)” value stood at 3633 ± 1416 ng luc/g.
